These results are taken from patent publication US20110111976A1, “MICRORNA BIOMARKERS OF TISSUE INJURY” (priority 2008, published 2011).

The subject of series [1] is Sprague-Dawley rats. As to the kind of experiment: Liver histopathology scores of toxicant-treated rats. Format: in vivo, rat. Conditions: TMPD-treated rats. The method, then:
(§1) To follow up on the initial results shown in Example 2, blood samples from 44 individual rats that had been treated with varying doses of CBrCl3, CCl4 (another liver toxicant), or TMPD were evaluated using qPCR of miR-122 and miR-133. In addition, data from histopathology and a panel of standard biomarkers (ALT, AST, CK, skTnI, etc.) were also available for these same individual rats and were used to compare the results from microRNA assays with the standard histopathology and protein biomarkers.
(§2) Animals Male and female Sprague-Dawley rats were obtained from Charles River Laboratories, Inc. (Raleigh, N.C.). The rats were approximately seven to eight weeks of age and weighed from 125 to 325 grams at the start of the study. The animals were acclimated for approximately one week and randomized into treatment and control groups. During the toxicity studies targeting liver, the animals were maintained on a caloric-restricted diet, and fasted overnight prior to necropsy. Doses were different for each model compound tested and were calculated based on animal body weight. For the compounds, routes of administration, dose groups, and time points, see the below compound section.
(§3) Liver Toxicant • Trichlorobromomethane (CCl3Br) • Doses: 0.03, 0.1 ml/kg • Dosing: 100% liquid paraffin by oral gavage • Animals: Sprague Dawley Male Rats • Time Point: CCl3Br Plasma (Days 2 & 4) and Controls (4 controls, 3 samples per group, 100 μl each) • Carbon Tetrachloride (CCl4) • Doses: 0.03, 0.1, 0.3 ml/kg • Dosing: 100% liquid paraffin by oral gavage • Animals: Sprague Dawley Male Rats • Time Point: CCl4 Plasma (Days 2) and Controls (4 samples per group, 100 μl each)

The test system of series [2] is Sprague-Dawley rats. Nature of the series: Individual sample study: miR-122 in blood plasma of toxicant-treated rats by qPCR. Format: in vivo, rat. Particulars: Day 2, plasma, individual male rats. The method, then: as §1, §2
(§4) Skeletal Muscle Toxicant • 2,3,5,6-tetramethyl-p phenylenediamine (TMPD) • Doses: 2, 4 mg/kg bid • Dosing: 0.9% NaCl by subcutaneous injection • Animals: Sprague Dawley Male Rats • Time Points: TMPD Plasma (Day 2) and Controls (5 samples per group, […] pooled=500 μl total).
as §3
(§5) Plasma Samples All plasma samples were collected in EDTA tubes at final necropsy from the vena cava. Samples were inverted several times, and centrifuged for 20 minutes at 2,900 RPM at 4° C. Plasma samples were removed and stored at −70° C. Pooled blood plasma samples from rat toxicology studies were analyzed using a qPCR-based assay (Raymond et al, 2005, RNA 11:1737; WO 2006/081282). Control slope and intercept values for miR-122 and miR-133 were calculated from a concentration series of each microRNA added to total yeast RNA and then analyzed using the qPCR assay for each miRNA. The slope and intercept values from the standard curve were used to calculate the amount of each respective miRNA in each sample expressed as the number of miRNA copies per 20 ng of total RNA in each sample. Cycle threshold values (Ct) for each sample were converted to miRNA copy numbers by comparison to standard curves generated using single stranded mature miRNAs and are expressed in Table 4 as copies/20 pg input RNA (approximately equivalent to copies/cell).

Series [3] has as its system Sprague-Dawley rats. As to the kind of experiment: Individual sample study: miR-133 in blood plasma of toxicant-treated rats by qPCR. Conditions: Day 2, plasma, individual male rats. Format: in vivo, rat. The procedure: as §1, §2, §4, §3, §5
In series [4] the test system is Sprague-Dawley rats. As to the kind of experiment: Pooled sample study: miR-122 in blood plasma of toxicant-treated rats by qPCR. Format: in vivo. Conditions: pooled rat plasma (5 samples), cerivastatin 1.0 mg/kg/day oral Day 14, CBrCl3 0.1 ml/kg oral Days 2 & 4, TMPD 6 mg/kg bid s.c. Day 3. The method, then: (§6) To explore the feasibility of detecting miRNA tissue injury biomarkers in plasma, a pilot study was performed in which pooled blood plasma samples from rat toxicology studies were analyzed using a qPCR-based assay (Raymond et at, 2005, RNA 11:1737; WO 2006/081282). The miRNAs miR-122 and miR-133 were chosen for quantification because they are extremely abundant and specific to liver and muscle, respectively (FIG. 1). Stored plasma samples from rats that had previously been treated with a liver damaging agent trichlorobromomethane (CBrCl3) or with one of two muscle damaging agents 2,3,5,6-tetramethyl-p phenylenediamine (TMPD) or cerivastatin) were assayed form miRNA levels using qPCR.
as §2
(§7) Skeletal Muscle Toxicant • 2,3,5,6-tetramethyl-p phenylenediamine (TMPD) • Doses: 6 mg/kg bid • Dosing: 0.9% NaCl by subcutaneous injection • Animals: Sprague Dawley Male Rats • Time Points Day 3, TMPD Plasma (Day 3) and Controls (5 samples, 100 ul each pooled=500 ul total).
(§8) Liver Toxicant • Trichlorbromomethane (CCl3Br) • Doses: 0.1 ml/kg • Dosing: 100% liquid paraffin by oral gavage • Animals: Sprague Dawley Male Rats • Time Point: Day 2, 4 CCl3Br Plasma (Days 2 & 4) and Controls (5 samples, 100 ul each pooled=500 ul total)
(§9) Liver and Muscle Toxicant • Cerivastatin • Doses: 1.0 mg/kg/day • Dosing: 0.5% methylcellulose by oral gavage • Animals: Sprague Dawley Female Rats • Time Point Day 14 Cerivastatin Plasma (Day 14) and Controls (5 samples, 100 ul each pooled=500 μl total)
as §5, with “expressed” for “expressed in Table 4”

Series [5] concerns Sprague-Dawley rats. Nature of the series: Muscle histopathology (quad, soleus) of TMPD-treated rats. Conditions: Day 2, individual male rats. On the set-up: key: 1 = very slight; 2 = slight or small; 3 = moderate; 4 = marked; 5 = severe tissue injury. It is filed as in vivo, rat. The method, then:
as §1, §2, §4

For series [6], the system named is Sprague-Dawley rats. Nature of the series: Pooled sample study: miR-133 in blood plasma of toxicant-treated rats by qPCR. Format: in vivo. Conditions: pooled rat plasma (5 samples), cerivastatin 1.0 mg/kg/day oral Day 14, CBrCl3 0.1 ml/kg oral Days 2 & 4, TMPD 6 mg/kg bid s.c. Day 3. The procedure:
as §6, §2, §7, §8, §9
as §5, with “expressed” for “expressed in Table 4”

The subject of series [7] is Sprague-Dawley rats. As to the kind of experiment: Clinical chemistry (AST, ALT, CK) in blood plasma of toxicant-treated rats. Format: in vivo, rat. Conditions: for ALT / AST / CK: Day 2, plasma, individual male rats. The method, then:
as §1, §2, §4, §3

For series [8], the system named is Sprague-Dawley rats. As to the kind of experiment: miR-10a in urine of kidney-toxicant-treated rats by qPCR. Format: in vivo, rat. Particulars: Gentamicin 240 mg/kg/day intraperitoneal, individual male rats.
Source text: as §2, with “targeting kidney,” for “targeting liver,”, “below Test Compound” for “below compound”
Urine Samples Urine samples were collected overnight on either dry or wet ice, aliquoted, and stored at −70° C. […] Urine samples were thawed on ice and about 1 milliliter (ml) of each sample placed into a tube. Each sample was placed in a room temperature speed-vac to reduce sample volume to about 200 microliters (μl). About 1 ml of trizol was added to the viscous concentrated urine solution and RNA extracted using Ambion BlycoBlue and alcohol precipitation.
Samples from rat toxicology studies were analyzed for miRNA levels using a qPCR-based assay (Raymond et al, 2005, RNA 11:1737; WO 2006/081282). Control slope and intercept values for miR-10a was calculated from a concentration series of miR-10a added to total yeast RNA and then analyzed using the qPCR assay. The slope and intercept values from the standard curve were used to calculate the amount of miR-10a in each sample expressed as the number of miRNA copies per 20 ng of total RNA in each sample. Cycle threshold values (Ct) for each sample were converted to miRNA copy numbers by comparison to a standard curve generated using single stranded mature miR-10a and are expressed in Table 7 as copies/20 pg input RNA (approximately equivalent to copies/cell).

The test system of series [9] is Sprague-Dawley rats. Nature of the series: Kidney histopathology (proximal tubule overall tissue injury) of toxicant-treated rats. It is filed as in vivo, rat. Particulars: Gentamicin 240 mg/kg/day intraperitoneal, Day 12, individual male rats.
Source text: as §2, with “targeting kidney,” for “targeting liver,”, “below Test Compound” for “below compound”

Several values for one entry are separate records, joined by “and”; a condition that tells them apart may be missing. Equal entries are not always repeated.

As for `Cc1c(C)c(N)c(C)c(C)c1N` [TMPD, 2,3,5,6-tetramethyl-p phenylenediamine], the liver histopathology entry in the series with Sprague-Dawley rats [1] is recorded as “no liver histopathology has been observed”. Further, the miR-122 in the series on Sprague-Dawley rats [2] (TMPD 2 mg/kg bid subcutaneous) was 2.6 copies/20 pg input RNA and 5.6 copies/20 pg input RNA and 7.3 copies/20 pg input RNA and 0.8 copies/20 pg input RNA and 2.2 copies/20 pg input RNA. Also, the miR-122 with Sprague-Dawley rats [2] (TMPD 4 mg/kg bid subcutaneous) is 9.5 copies/20 pg input RNA and 1.8 copies/20 pg input RNA and 15.7 copies/20 pg input RNA and 11.7 copies/20 pg input RNA and 3.2 copies/20 pg input RNA. In addition, in the series on Sprague-Dawley rats [3] (TMPD 2 mg/kg bid subcutaneous), the miR-133 was 0.9 copies/20 pg input RNA and 4.3 copies/20 pg input RNA and 9.3 copies/20 pg input RNA and 1.3 copies/20 pg input RNA and 4.1 copies/20 pg input RNA. For the same compound, the miR-133 with Sprague-Dawley rats [3] (TMPD 4 mg/kg bid subcutaneous) was 19.3 copies/20 pg input RNA and 63.9 copies/20 pg input RNA and 79.3 copies/20 pg input RNA and 63.8 copies/20 pg input RNA and 16.7 copies/20 pg input RNA. Moreover, in the series on Sprague-Dawley rats [4] (250 ng total RNA input), the “miR-122 Copies” value came out at 89353.3 and the “miR-122 Ct Mean” value is given as 26.2479. Moreover, the “miR-122 Copies/20 pg” value with Sprague-Dawley rats [4] came to 7.1 Copies/20 pg. Moreover, in the series on Sprague-Dawley rats [5] (TMPD 2 mg/kg bid subcutaneous), the “Muscle Histopathology Quad (Overall Damage)” value is 0 (4×) and 1; the “Muscle Histopathology Soleus (Overall Damage)” value was 0. In the series on Sprague-Dawley rats [5] (TMPD 4 mg/kg bid subcutaneous), the “Muscle Histopathology Quad (Overall Damage)” value is 1 (3×) and 2 (2×); the “Muscle Histopathology Soleus (Overall Damage)” value is 1 (3×) and 0 (2×). Also, in the series with Sprague-Dawley rats [6] (250 ng total RNA input), the “miR-133 Copies” value was 4753175 and the “miR-133 Ct Mean” value is recorded as 23.7323. Besides, in the series on Sprague-Dawley rats [6], the “miR-133 Copies/20 pg” value is given as 380.3 Copies/20 pg. Further, in the series with Sprague-Dawley rats [7] (TMPD 2 mg/kg bid subcutaneous), the ALT is 29 U/L and 36 U/L and 37 U/L and 27 U/L and 30 U/L; the AST was 120 U/L and 164 U/L and 203 U/L and 111 U/L and 167 U/L; the CK is 424 U/L and 695 U/L and 696 U/L and 450 U/L and 463 U/L. In addition, in the series on Sprague-Dawley rats [7] (TMPD 4 mg/kg bid subcutaneous), the ALT is 60 U/L and 133 U/L and 215 U/L and 94 U/L and 56 U/L; the AST is 357 U/L and 1250 U/L and 1740 U/L and 700 U/L and 501 U/L; the CK is 363 U/L and 767 U/L and 1252 U/L and 439 U/L and 343 U/L. Moreover, in the series on Sprague-Dawley rats [7] (rats dosed with TMPD, plasma), the ALT versus controls entry was “significantly elevated” and the AST versus controls entry is reported as “significantly elevated”.

Turning to Gentamicin, the miR-10a was 11.98 copies/20 pg input RNA and 3.51 copies/20 pg input RNA and 0.03 copies/20 pg input RNA and 0.05 copies/20 pg input RNA and 10.00 copies/20 pg input RNA with Sprague-Dawley rats [8] (Day 3, urine); 0.96 copies/20 pg input RNA and 0.64 copies/20 pg input RNA and 16.88 copies/20 pg input RNA and 51.03 copies/20 pg input RNA and 6.61 copies/20 pg input RNA and 4.90 copies/20 pg input RNA and 58.70 copies/20 pg input RNA and 38.01 copies/20 pg input RNA and 25.61 copies/20 pg input RNA in the series on Sprague-Dawley rats [8] (Day 9, urine); 3.5 copies/20 pg input RNA and 9.46 copies/20 pg input RNA and 4.17 copies/20 pg input RNA and 2.13 copies/20 pg input RNA and 4.99 copies/20 pg input RNA and 3.46 copies/20 pg input RNA and 3.86 copies/20 pg input RNA and 23.75 copies/20 pg input RNA and 10.40 copies/20 pg input RNA with Sprague-Dawley rats [8] (Day 12, urine). The “Kidney Histopathology: Proximal tubule overall tissue injury (highest severity grade measured at Day 12)” value in the series on Sprague-Dawley rats [9] is 5.
